The results in this text go back to patent publication US9988680B2, “Non-natural nucleosides as theranostic agents” (Case Western Reserve University, priority 2011, dated 2018).

The target of this test is terminal deoxynucleotidyl transferase (TdT) (Bos taurus, UniProt P06526). The experiment in a line: Incorporation of natural and non-natural nucleotides by TdT (polymerization assay, Michaelis-Menten kinetics). The test is classed as biochemical. As to conditions: for Km / Vmax: incorporation by TdT, 1.5 μM single-stranded DNA substrate. As for the experimental part:
All enzymatic assays were performed as previously described. […] Reactions were quenched with 200 Mm EDTA at variable times (5-600 s) and analyzed using denaturing gel electrophoresis. Time courses in product formation were fitted using eq 1: Y=mt+b(1) (1)
where y is the amount of product, m is the rate of the reaction, t is time, and b is the Y-intercept. Km and Vmax values were determined by fits of the data points to the Michaelis-Menten equation: […]
where Vmax is the maximal rate of nucleotide incorporation, Km is the Michaelis constant for dNTP, and [dNTP] is the concentration of nucleotide substrate. The IC50 value for 3-Eth-5-NITP was obtained using a nonlinear regression curve fit of the data to eq 3:
The biological function of TdT is to expand immunological diversity by randomly incorporating dNTPs into single-stranded DNA during V(D)J recombination. […] TdT also utilizes nucleotide analogues including 2′,3′-dideoxynucleotides, dinucleoside 5′,5′-tetraphosphates, and intrinsically fluorescent nucleotide analogues. In this report, we tested if TdT also incorporates indolyl-2′-deoxyribose-5′-triphosphates that bear non-natural moieties such as ethynyl and nitro groups at the 3- and 5-position, respectively, of the indole base. […] Aliquots of the reaction were quenched with EDTA at variable time points, and the polymerization reactions were then subjected to denaturing polyacrylamide gel electrophoresis to separate extended primers from unreacted substrate.
Time courses in product formation were generated using pseudo-first order reaction conditions in which 6 units of TdT were incubated with 1.5 μM DNA substrate and mixed with variable concentrations of non-natural nucleotide (0.05-50 μM). Each time course was fit to an equation for a straight line to define the rate of nucleotide incorporation (data not shown).

terminal deoxynucleotidyl transferase (TdT), sequence (P06526 whole entry): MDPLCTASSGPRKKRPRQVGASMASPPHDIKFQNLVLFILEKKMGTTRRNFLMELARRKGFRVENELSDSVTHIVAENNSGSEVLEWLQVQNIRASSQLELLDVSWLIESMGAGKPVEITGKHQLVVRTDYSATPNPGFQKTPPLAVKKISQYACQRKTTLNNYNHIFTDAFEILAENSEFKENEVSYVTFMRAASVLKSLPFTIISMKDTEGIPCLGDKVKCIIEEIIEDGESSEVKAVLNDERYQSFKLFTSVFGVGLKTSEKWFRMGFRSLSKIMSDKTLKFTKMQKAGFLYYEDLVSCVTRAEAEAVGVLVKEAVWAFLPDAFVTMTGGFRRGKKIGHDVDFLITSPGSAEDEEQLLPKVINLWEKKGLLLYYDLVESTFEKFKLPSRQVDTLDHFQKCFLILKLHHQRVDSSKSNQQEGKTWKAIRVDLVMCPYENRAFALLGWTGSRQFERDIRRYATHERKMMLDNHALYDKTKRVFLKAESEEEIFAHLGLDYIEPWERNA

With `O=[N+]([O-])c1ccc2c(ccn2C2CC(O)C(COP(=O)(O)OP(=O)(O)OP(=O)(O)O)O2)c1` (centres unmarked) [5-NITP], the “utilization by TdT (elongation of 14-mer DNA substrate)” value (100 μM nucleotide, 6 units TdT, 1.5 μM 14-mer (FIG. 2B)) was “utilized by TdT as efficiently as the natural purines”. Also, under “100 μM nucleotide, 14-mer DNA, gel (FIG. 2B)”, the “extension by TdT beyond the incorporated nucleotide” value is “rivals that of the natural purines”. For the setting “6 units TdT”, the Km – broadly, the substrate concentration at which the rate is half of its maximum – is 4.6 ± 0.6 µM and the Vmax – broadly, the top rate of the reaction or transport when substrate is in excess – worked out at 11.5 ± 0.4 nM/s.

For the compound `Nc1ncnc2c1ncn2[C@H]1C[C@H](O)[C@@H](COP(=O)(O)OP(=O)(O)OP(=O)(O)O)O1` [dATP], for the setting “6 units TdT”, the Km was determined as 1.5 ± 0.4 µM and the Vmax was found to be 3.3 ± 0.3 nM/s.

`Nc1nc2c(ncn2[C@H]2C[C@H](O)[C@@H](COP(=O)(O)OP(=O)(O)OP(=O)(O)O)O2)c(=O)[nH]1` [dGTP]: for the setting “6 units TdT”, the Km came out at 8 ± 0.9 µM and the Vmax was 29.2 ± 1.1 nM/s.
